According to patent US4416884A, “Piperazinylbenzoheterocyclic compounds” (Otsuka Pharmaceutical Co., Ltd., priority 1978, dated 1983):
Converted amounts (≈) assume the structure as drawn. Like-named read-outs stand apart in the source and are kept apart here.

Tests used:
Format in all cases: cell-based
[1] = system: Bacillus subtilis PCI 219; experiment: antimicrobial activity, serial dilution method on agar plate
How it was run: (§1)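 Agar-plate serial dilution in Heart Infusion agar; inocula prepared at 1×10^8 cells/ml (O.D. 660 mμ=0.07 to 0.16) and at 1×10^6 cells/ml by dilution. Values are minimum inhibitory concentrations in mcg/ml.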

[2] = system: Escherichia Coli NIHJ JC-2 (IFO 12734); experiment: as above; details: Escherichia coli, read-out: Minimum Inhibitory Concentration
How it was run: as §1

[3] = system: Klebsiella pneumoniae ST-101; experiment: as above
How it was run: as §1

[4] = system: Proteus morganii IID Kono; experiment: as above; details: Morganella morganii
How it was run: as §1

[5] = system: Pseudomonas aeruginosa ATCC 10145; experiment: as above
How it was run: as §1

[6] = system: Streptococcus pneumoniae Type III; experiment: as above
How it was run: as §1

[7] = system: Streptococcus pneumoniae Type II; experiment: as above
How it was run: as §1

[8] = system: Streptococcus pyogenes IID Cook; experiment: as above
How it was run: as §1

[9] = system: Yersinia enterocolitica 0-5; experiment: as above
[10] = system: Aeromonas hydrophila IFO 12658; experiment: antimicrobial activity on bacteria which cause infectious diseases in fish
Description: (§2) The antimicrobial activity of the following test compounds on various test organisms listed below was determined by the serial dilution method on agar plate (Heart Infusion agar produced by Difco Co.) (see CHEMOTHERAPY 22, pp. 1126-1128 (1974)), and the minimum inhibitory concentrations (mcg/ml) obtained are shown in Table 1 below.
(§3) A sample of each test organism was prepared so that the population of the organism was 1×10^8 cells/ml (O.D. 660 mμ=0.07 to 0.16) and 1×10^6 cells/ml (which was obtained by diluting the above 1×10^8 cells/ml preparation).
(§4) In the same manner as above, the antimicrobial activity of the following compounds on various test organisms which cause infectious diseases in fish was determined.

[11] = system: Aeromonas hydrophila IFO 12981; experiment: as above
Description: as §2, §3, §4

[12] = system: Aeromonas salmonicida IFO 12659; experiment: as above
Description: as §2, §3, §4

[13] = system: Aeromonas salmonicida IFO 12718; experiment: as above
Description: as §2, §3, §4

[14] = system: Pseudomonas fluorescens IFO 12180; experiment: as above
Description: as §2, §3, §4

[15] = system: Pseudomonas fluorescens IFO 12568; experiment: as above
Description: as §2, §3, §4

[16] = system: Vibrio anguillarum IFO 12710; experiment: as above
Description: as §2, §3, §4

[17] = system: Vibrio anguillarum IFO 13266; experiment: as above
Description: as §2, §3, §4

[18] = read-out: Minimum Inhibitory Concentration, inoculum 1 × 10^6 cells/ml
[19] = read-out: Minimum Inhibitory Concentration, inoculum 1 × 10^8 cells/ml

SMILES: CCn1cc(C(=O)O)c(=O)c2ccc(C)nc21 [E]
- MIC ([1]; PCI219, read-out: Minimum Inhibitory Concentration, inoculum 1 × 10^6 cells/ml): 3.1 µg/mL (≈ 13.3 µM)
- MIC ([1]; PCI219, read-out: Minimum Inhibitory Concentration, inoculum 1 × 10^8 cells/ml): 6.3 µg/mL (≈ 27.1 µM)
- MIC ([2]; inoculum 1 × 10^6 cells/ml): 3.1 µg/mL (≈ 13.3 µM)
- MIC ([2]; inoculum 1 × 10^8 cells/ml): 3.1 µg/mL (≈ 13.3 µM)
- MIC ([3]; ST101, read-out: Minimum Inhibitory Concentration, inoculum 1 × 10^6 cells/ml): 1.6 µg/mL (≈ 6.89 µM)
- MIC ([3]; ST101, read-out: Minimum Inhibitory Concentration, inoculum 1 × 10^8 cells/ml): 1.6 µg/mL (≈ 6.89 µM)
- MIC [4, 18]: 3.1 µg/mL (≈ 13.3 µM)
- MIC [4, 19]: 6.3 µg/mL (≈ 27.1 µM)
- MIC ([5]; ATCC10145, read-out: Minimum Inhibitory Concentration, inoculum 1 × 10^6 cells/ml): > 100 µg/mL
- MIC ([5]; ATCC10145, read-out: Minimum Inhibitory Concentration, inoculum 1 × 10^8 cells/ml): > 100 µg/mL
- MIC [6, 18]: > 100 µg/mL
- MIC [6, 19]: > 100 µg/mL
- MIC [7, 18]: > 100 µg/mL
- MIC [7, 19]: > 100 µg/mL
- MIC [8, 18]: > 100 µg/mL
- MIC [8, 19]: > 100 µg/mL
- MIC ([9]; Yersinia enterocolitica, 05, read-out: Minimum Inhibitory Concentration, inoculum 1 × 10^6 cells/ml): 1.6 µg/mL (≈ 6.89 µM)
- MIC ([9]; Yersinia enterocolitica, 05, read-out: Minimum Inhibitory Concentration, inoculum 1 × 10^8 cells/ml): 3.1 µg/mL (≈ 13.3 µM)
- MIC ([10]; IFO12658, inoculum 10^6, read-out: Minimum Inhibitory Concentration): 0.8 µg/mL (≈ 3.44 µM)
- MIC ([10]; IFO12658, inoculum 10^8, read-out: Minimum Inhibitory Concentration): 0.8 µg/mL (≈ 3.44 µM)
- MIC ([11]; IFO12981, inoculum 10^6, read-out: Minimum Inhibitory Concentration): 0.2 µg/mL (≈ 0.861 µM)
- MIC ([11]; IFO12981, inoculum 10^8, read-out: Minimum Inhibitory Concentration): 0.4 µg/mL (≈ 1.72 µM)
- MIC ([12]; IFO12659, inoculum 10^6, read-out: Minimum Inhibitory Concentration): 0.8 µg/mL (≈ 3.44 µM)
- MIC ([12]; IFO12659, inoculum 10^8, read-out: Minimum Inhibitory Concentration): 0.8 µg/mL (≈ 3.44 µM)
- MIC ([13]; IFO12718, inoculum 10^6, read-out: Minimum Inhibitory Concentration): 0.8 µg/mL (≈ 3.44 µM)
- MIC ([13]; IFO12718, inoculum 10^8, read-out: Minimum Inhibitory Concentration): 0.8 µg/mL (≈ 3.44 µM)
- MIC ([14]; IFO12180, inoculum 10^6, read-out: Minimum Inhibitory Concentration): 50 µg/mL (≈ 215 µM)
- MIC ([14]; IFO12180, inoculum 10^8, read-out: Minimum Inhibitory Concentration): > 50 µg/mL
- MIC ([15]; IFO12568, inoculum 10^6, read-out: Minimum Inhibitory Concentration): 50 µg/mL (≈ 215 µM)
- MIC ([15]; IFO12568, inoculum 10^8, read-out: Minimum Inhibitory Concentration): > 50 µg/mL
- MIC ([16]; IFO12710, inoculum 10^6, read-out: Minimum Inhibitory Concentration): 0.8 µg/mL (≈ 3.44 µM)
- MIC ([16]; IFO12710, inoculum 10^8, read-out: Minimum Inhibitory Concentration): 1.6 µg/mL (≈ 6.89 µM)
- MIC ([17]; IFO13266, inoculum 10^6, read-out: Minimum Inhibitory Concentration): 0.8 µg/mL (≈ 3.44 µM)
- MIC ([17]; IFO13266, inoculum 10^8, read-out: Minimum Inhibitory Concentration): 1.6 µg/mL (≈ 6.89 µM)
